Laboratory results: patent US7888380B2, “1,2,4-Triazolylaminoaryl (heteroaryl) sulfonamide derivatives” (Janssen Pharmaceutica, N.V., priority 2004, dated 2011)
Structures can show the parent of a compound that is named as a salt. Where two headings read alike, the source gives them in different places.

Tests used:
HER2 = target: T1, HER2 (Homo sapiens, UniProt P04626); experiment: HER2 Kinase Screening Assay; type: biochemical; details: 10 μM ATP; >10 or >100 = less than 50% inhibition at highest concentration tested
T1 construct: polyhistidine (N)
Procedure: The HER2 kinase assay was carried out as described above for the VEGF-R kinase assay except that the enzyme was replaced with a human epidermal growth factor receptor-2 (HER2) construct contains a polyhistidine tag at the N-terminus followed by 24 additional amino acids and begins at amino acid 676 (Accession #M11730) followed by the remainder of the HER2 cytoplasmic domain.
VEGF-R (vascular endothelial growth factor receptor-2) is a fusion protein containing a polyhistidine tag at the N-terminus followed by amino acids 786-1343 of the rat VEGF-R2 kinase domain (GenBank Accession #U93306). CDK1 (cyclin dependent kinase 1) was isolated from insect cells expressing both the human CDK1 catalytic subunit and its positive regulatory subunit cyclin B (New England Biolabs, Beverly, Mass., Cat. # 6020). CDK2 in complex with cyclin A is commercially available (Upstate Biotech, Lake Placid, N.Y.). The HER2 (human epidermal growth factor receptor-2) construct contains a polyhistidine tag at the N-terminus followed by 24 additional amino acids and begins at amino acid 676 followed by the remainder of the HER2 cytoplasmic domain.

[1] = Standard Rat Pharmacokinetics (PK); type: in vivo; details: for bioavailability: plasma, rat, Dose(IV)*AUC(oral)/Dose(oral)*AUC(IV); for Cmax: rat plasma
Procedure: The conversion of prodrug to active form was evaluated using a standard rat PK protocol. The following procedure may be followed.
Rats were dosed intravenously (IV) at the level of 1.5-3 mg/kg and by oral gavage (PO) at the level of 10-30 mg/kg with prodrug candidate. For each study, four rats were used for IV dosing and four rats were used for PO dosing. Prodrug was typically formulated for IV dosing as a solution in 10% W/V solutol in 5% dextrose in sterile water vehicle (D5W). Prodrug was typically formulated for oral dosing as a uniform suspension in 0.5% methylcellulose vehicle. Blood samples (0.5 mL) were collected into heparinized tubes post dose via orbital sinus puncture. For IV dosing, blood samples were collected at 5, 15 and 30 mins, 1, 2, 4, 6, 8, and 24 hrs after the dosing. For PO dosing, blood samples were collected at 30 mins, 1, 2, 4, 6, 8 and 24 hrs. Blood samples were centrifuged for cell removal, and precisely 200 μL of plasma supernatant was then transferred to a clean vial, placed on dry ice, and subsequently stored in a −70° C. freezer prior to analysis. Results were calculated by WinNonlin Pro version 3.1. Plasma levels were determined and the oral and intravenous area under the concentration vs. time curve (AUC) were compared to determine the % bioavailability (% F) by the following formula: Dose(IV)*AUC(oral)/Dose (oral)*AUC(IV).

HCT-116 colon carcinoma = experiment: Inhibition of cell proliferation (14C-thymidine incorporation), HCT116; type: cell-based, human; details: Homo sapiens, HCT-116
Procedure: (§1) The ability of a test compound to inhibit the proliferation of cell growth was determined by measuring incorporation of ^14C-labelled thymidine into newly synthesized DNA within the cells. This method was used on cell lines derived from carcinomas originating from several tissues such as HeLa cervical adenocarcinoma (American Type Culture Collection (ATCC), Virginia, Cat. #CCL-2), A375 malignant melanoma (ATCC CRL-1619), and HCT-116 colon carcinoma (CCL-247). In this way the effect of a compound on cell growth of cells with many different phenotypes can be determined. Cells were trypsinized and counted and 3000-8000 cells were added to each well of a 96-well CytoStar tissue culture treated scintillating microplate (Amersham #RPNQ0160) in complete medium in a volume of 100 μl. Cells were incubated for 24 hours in complete medium at 37° C. in an atmosphere containing 5% CO2.
(§2) Next, 1 μl of test compound in 100% DMSO was added to the wells of the plate. DMSO only was added to control wells. Cells were incubated for 24 more hours in complete medium at 37° C. in an atmosphere containing 5% CO2. Methyl ^14C-thymidine 56 mCi/mmol (NEN #NEC568 or Amersham #CFA532) was diluted in complete medium and 0.2 uCi/well was added to each well of the CytoStar plate in a volume of 20 ul. The plate was incubated for 24 hours at 37° C. plus 5% CO2 in drug plus ^14C-thymidine. The contents of the plate were discarded into a ^14C radioactive waste container by inverting the plate and the plate was washed twice with 200 μl PBS.
(§3) 200 μl of PBS was added to each well. The top of the plate was sealed with a transparent plate sealer and a white plate backing sealer (Packard #6005199) was applied to the bottom of the plate. The degree of methyl ^14C-thymidine incorporation was quantified on a Packard Top Count.

CDK2:Cyclin-E = CDK2:Cyclin-E (Homo sapiens, UniProt P24941); experiment: CDK2 Screening Assay (33P-ATP FlashPlate); type: biochemical; details: 10 μM ATP; >10 or >100 = less than 50% inhibition at highest concentration tested
Procedure: A kinase reaction mixture was prepared containing 50 mM Tris-HCl pH=8, 10 mM MgCl2, 0.1 mM Na3PO4, 1 mM DTT, 10 μM ATP, 0.025 μM biotinylated histone-H1 peptide substrate and 0.2 μCuries per well ^33P-γ-ATP (2000-3000 Ci/mmol). 70 μL of the kinase reaction mixture was dispensed into the well of a streptavidin coated FlashPlate™ (Cat. # SMP103, NEN, Boston, Mass.). Then 1 μL of test compound stock in 100% DMSO was added to the wells resulting in a final concentration of 1% DMSO in the reaction with a 100 μl final reaction volume. Next, CDK2:Cyclin-E protein was diluted in 50 mM Tris-HCl pH=8.0, 0.1% BSA at a concentration of 1 ng per μL and 30 μL (30 ng enzyme per test well) was added to each well to initiate the reaction. The reaction was incubated for one hour at 30° C. At the end of the 1 h incubation, the reaction was terminated by aspirating the mixture from the plate and washing the wells twice with PBS containing 100 mM EDTA. The histone-H1 biotinylated peptide substrate became immobilized on the Flashplate™ and the incorporation of ^33P-γ-ATP was measured by reading the plate on a scintillation counter. Inhibition of the enzymatic activity of CDK2 was measured by observing a reduced amount of ^33P-γ-ATP incorporated into the immobilized peptide. […]

[2] = tested on: HeLa cervical adenocarcinoma; experiment: Inhibition of cell proliferation (14C-thymidine incorporation), HeLa; type: cell-based; details: Homo sapiens
Procedure: as §1, §2, §3

[3] = PO 10 mg/kg of prodrug, read-out: Prodrug Cmax (μM) PO
[4] = IV 2 mg/kg of prodrug, read-out: Prodrug Cmax (μM) IV
[5] = IV 3 mg/kg of prodrug, read-out: Prodrug Cmax (μM) IV
[6] = PO 30 mg/kg of prodrug, read-out: Prodrug Cmax (μM) PO

T1 sequence (P04626 676-1255 limits assumed): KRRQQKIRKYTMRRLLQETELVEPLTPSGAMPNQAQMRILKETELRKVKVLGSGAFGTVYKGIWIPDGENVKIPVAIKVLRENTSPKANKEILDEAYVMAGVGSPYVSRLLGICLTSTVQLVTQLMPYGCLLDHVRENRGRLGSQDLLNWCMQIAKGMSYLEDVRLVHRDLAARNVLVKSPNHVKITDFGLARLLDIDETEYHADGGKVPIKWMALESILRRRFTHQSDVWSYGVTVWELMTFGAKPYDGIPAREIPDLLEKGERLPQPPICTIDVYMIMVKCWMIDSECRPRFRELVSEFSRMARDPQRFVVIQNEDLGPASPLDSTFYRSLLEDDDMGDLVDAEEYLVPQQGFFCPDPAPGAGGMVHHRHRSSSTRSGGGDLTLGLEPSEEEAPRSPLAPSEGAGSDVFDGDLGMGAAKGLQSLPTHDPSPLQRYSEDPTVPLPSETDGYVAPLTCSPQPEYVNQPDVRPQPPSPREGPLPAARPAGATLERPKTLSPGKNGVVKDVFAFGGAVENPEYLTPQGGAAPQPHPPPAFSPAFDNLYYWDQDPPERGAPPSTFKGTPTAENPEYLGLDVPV

| Structure (SMILES) | IC50 (HER2) [µM] | bioavailability ([1]; IV/PO 2/10 mg/kg) [%] | Cmax [1, 3] [µM] | IC50 (HCT-116 colon carcinoma) [µM] | IC50 (CDK2:Cyclin-E) [µM] | IC50 [2] [µM] | Cmax [1, 4] [µM] | bioavailability ([1]; IV/PO 3/30 mg/kg) [%] | Cmax [1, 5] [µM] | Cmax [1, 6] [µM] |
| --- | --- | --- | --- | --- | --- | --- | --- | --- | --- | --- |
| Nc1nc(Nc2ccc(S(=O)(=O)NC(=O)COCCOCCOCC(=O)O)cc2)nn1C(=O)c1c(F)cccc1F [Compound 12, {2-[2-(2-{4-[5-amino-1-(2,6-difluoro-benzoyl)-1H-[1,2,4]triazol-3-ylamino]-benzenesulfonylamino}-2-oxo-ethoxy)-ethoxy]-ethoxy}-acetic acid.2TFA salt] | > 100 | 0 | 0.04 | > 10 | 0.08 | 30.8 | – | – | – | – |
| Nc1nc(Nc2ccc(S(=O)(=O)NC(=O)[C@@H](N)CO)cc2)nn1C(=O)c1c(F)cccc1F [Compound 13, 4-[5-amino-1-(2,6-difluoro-benzoyl)-1H-[1,2,4]triazol-3-ylamino]-N—((S)-2-amino-3-hydroxy-propionyl)-benzenesulfonamide] | ≥ 10 | 0 | – | 71.2 | 0.14 | 4.02 | 8.15 | – | – | – |
| C[C@@H](N)C(=O)NS(=O)(=O)c1ccc(Nc2nc(N)n(C(=O)c3c(F)cccc3F)n2)cc1 [Compound 14, 4-[5-amino-1-(2,6-difluoro-benzoyl)-1H-[1,2,4]triazol-3-ylamino]-N—((R)-2-amino-propionyl)-benzenesulfonamide] | ≥ 10 | 1 | 0.08 | 38.5 | 0.06 | 1.96 | 11 | – | – | – |
| C[C@H](N)C(=O)N[C@@H](C)C(=O)NS(=O)(=O)c1ccc(Nc2nc(N)n(C(=O)c3c(F)cccc3F)n2)cc1.O=C(O)C(F)(F)F.O=C(O)C(F)(F)F.O=C(O)C(F)(F)F [Compound 15, (S)-2-amino-N—((S)-2-{4-[5-amino-1-(2,6-difluoro-benzoyl)-1H-[1,2,4]triazol-3-ylamino]-benzenesulfonylamino}-1-methyl-2-oxo-ethyl)-propionamide 3 TFA salt] | ≥ 10 | 0 | 0.167 | 20.8 | 0.1 | 1.04 | 31.8 | – | – | – |
| Nc1nc(Nc2ccc(S(=O)(=O)NC(=O)[C@@H]3CCCN3)cc2)nn1C(=O)c1c(F)cccc1F [Compound 16, 4-[5-amino-1-(2,6-difluoro-benzoyl)-1H-[1,2,4]triazol-3-ylamino]-N—((S)-pyrrolidine-2-carbonyl)-benzenesulfonamide] | 50 | 0 | – | 3.94 | 0.03 | 10.2 | 1.8 | – | – | – |
| Nc1nc(Nc2ccc(S(=O)(=O)NC(=O)[C@@H](N)CC(=O)O)cc2)nn1C(=O)c1c(F)cccc1F [Compound 17, (S)-3-amino-4-{4-[5-amino-1-(2,6-difluoro-benzoyl)-1H-[1,2,4]triazol-3-ylamino]-benzenesulfonylamino}-4-oxo-butyric acid] | 20 | 0 | 0.1 | 28.4 | 0.09 | 58.3 | 18.3 | – | – | – |
| CCCCC(=O)NS(=O)(=O)c1ccc(Nc2nc(N)n(C(=O)c3c(F)cccc3F)n2)cc1 [Compound 18, 4-[5-amino-1-(2,6-difluoro-benzoyl)-1H-[1,2,4]triazol-3-ylamino]-N-pentanoyl-benzenesulfonamide] | 5 | – | – | > 100 | 0.47 | 81.2 | – | 0.4 | 134 | 0.41 |
| CCCC(=O)NS(=O)(=O)c1ccc(Nc2nc(N)n(C(=O)c3c(F)cccc3F)n2)cc1 [Compound 19, 4-[5-amino-1-(2,6-difluoro-benzoyl)-1H-[1,2,4]triazol-3-ylamino]-N-butyryl-benzenesulfonamide] | 5 | – | – | 11.6 | 0.05 | 6.89 | – | 0.41 | 127 | 0.27 |
